Laboratory results published in EP1714639A1, “Cosmetic compositions containing piperazine derivatives” (L'ORÉAL, priority 2005, dated 2006).

Experiments:
[1] = test system: cellules musculaires striées humaines; experiment: nerve-muscle co-culture test (inhibition of muscle fibre contractions); type: cell-based; settings: for inhibition at 10 µM / inhibition at 100 µM: 60 s incubation, contractions counted over 30 s, triplicate, read-out: % d'inhibition des contractions
From the text: Les composés des Exemples 1 et 2 ont été testés sur un modèle de co-culture nerfs-muscles qui permet de recréer un arc moteur en innervant des cellules musculaires striées humaines avec des explants de moelle épinière et de ganglions rachidiens d'embryons de rat.
Des cellules musculaires humaines, issues de prélèvements de muscles striés de donneur sain, sont ensemencées dans des puits de 1,8 cm^2 de section (boîtes de culture de 24 puits). Après 10 jours de culture, ces cellules forment une monocouche et fusionnent. A ce stade, des explants de moelle épinière d'embryons de rat de 13 jours contenant les ganglions rachidiens sont déposées sur la culture.
La croissance des neurites est visible en dehors de l'explant de moelle épinière après un jour de culture. Les premières contractions des fibres musculaires sont observées après 5 à 6 jours de co-culture et après 3 semaines, toutes les fibres musculaires au voisinage des explants se contractent.
Le co-cultures sont utilisées après 21 jours, quand les fibres musculaires sont striées et possèdent des jonctions neuromusculaires différenciées matures.
Une fibre musculaire ayant des contractions régulières (au moins 60 contractions par minute) est alors sélectionnée dans trois puits de culture différents et le nombre de contractions est comptabilisé sur 30 secondes. Les composés testés, dilués dans le DMSO, sont ensuite incubés pendant 60 secondes dans ces puits, à la concentration de 10 µM pour le composé de l'Exemple 1 et de 10 et 100 µM pour le composé de l'Exemple 2. A la fin de l'incubation, le nombre de contractions est à nouveau comptabilisé sur 30 secondes. Le test est réalisé en triplicata.

[2] = test system: canaux calciques de type L; experiment: binding test on L-type calcium channels ([3H](-) D 888 displacement, verapamil site); parameters: species or system rat; settings: for % inhibition de la liaison: 1 µM in DMSO, [3H](-) D 888 0.5 nM, rat cerebral cortex homogenates, 60 min/22°C
Experimental: On a évalué la capacité des composés des Exemples 1, 4 et 5 (à 1 µM dans le DMSO) à inhiber par compétition la fixation d'[…] de canaux calciques de type L.
Les études sont réalisées à partir d'homogénats de cortex cérébral de rat (membranes isolées présentant à leur surface des canaux calciques de type L) selon la méthode décrite par Reynolds I.J. et al., 1986, J. Pharmacol. Exp. Ther., 237, p.731.
Les conditions expérimentales sont les suivantes :
D888 qui est le [^3H](-) desmethoxyverapamil sert de ligand spécifique radiomarqué et D600 qui est le chlorhydrate de (±)méthoxyvérapamil sert de molécule de référence.
La liaison spécifique d'un ligand (D888 marqué) aux récepteurs (canaux calciques de type L, site vérapamil) est définie comme la différence entre la liaison totale et la liaison non spécifique déterminée en présence d'un excès de ligand froid (non radioactif). Les résultats sont exprimés en pourcentage d'inhibition de la liaison spécifique du témoin en présence du composé testé.

[3] = anti-wrinkle activity in vivo

Row | Structure (SMILES) | inhibition at 10 µM [1] [%] | inhibition at 100 µM [1] [%] | % inhibition de la liaison [2] [%] | further results
1 | c1ccc(CCCN2CCN(CCc3ccccc3)CC2)cc1 [compound 2, 1-(2-phenylethyl)-4-(3-phenylpropyl)-piperazine] | 50 | 100 | – | inhibition de la liaison spécifique du témoin aux canaux calciques ([2]; similar test, concentration 50 µM): 50%
2 | CCN1CCN(CCCc2ccccc2)CC1 [compound 5, 1-ethyl 4-(3-phenylpropyl)-piperazine] | – | – | 16 | –
3 | CN1C(=O)CN=C(c2ccccc2)c2cc(Cl)ccc21 [diazépam, reference compound] | – | – | – | contractions des fibres musculaires ([1]; earlier finding of the applicant in this model): inhibait les contractions des fibres musculaires; activité anti-rides [3]: démontrée in vivo
4 | OCCCN1CCN(CCCc2ccccc2)CC1 [compound 4, 1-(3-hydroxpropyl) 4-(3-phenylpropyl)-piperazine] | – | – | 22 | –
5 | C(=Cc1ccccc1)CN1CCN(CCCc2ccccc2)CC1 [compound 1, 1-(3-phenyl-2-propenyl)-4-(3-phenylpropyl)-piperazine] | 65 | 100 | 30 | –
